Key:
Type in all cases: in vivo
[1] = tested on: giant foxtail (Setaria faberi); assay: Preemergence herbicidal activity; settings: 17.5 g/Ha; scored after 3 weeks; 0 no injury, 100 complete kill or no germination
Experimental: (§1) The soil matrix was contained in plastic pots with a surface area of 161 square centimeters. When required to ensure good germination and healthy plants, a fungicide treatment and/or other chemical or physical treatment was applied. A weighed amount, determined by the highest rate to be tested, of each test compound was placed in a 20 mL glass vial and was dissolved in 8 mL of a 97:3 v/v (volume/volume) mixture of acetone and dimethyl sulfoxide to obtain concentrated stock solutions. […] The stock solutions obtained were diluted with a 99.9:0.1 mixture of water and Tween® 155 surfactant (ethoxylated sorbitan fatty acid ester) to obtain application solutions of known concentration. The solutions containing the highest concentration to be tested were prepared by diluting 4 mL aliquots of the stock solution with 8.5 mL of the mixture and lower concentrations were prepared by dilution of appropriate smaller portions of the stock solution. A 2.5 mL aliquot of each solution of known concentration was sprayed evenly onto the soil of each seeded pot using a Cornwall 5.0 mL glass syringe fitted with a TeeJet TN-3 hollow cone nozzle to obtain thorough coverage of the soil in each pot. Control pots were sprayed in the same manner with the aqueous mixture. A highest application rate of 4.48 kg/ha is achieved when 50 mg of test compound is employed. The treated pots and control pots were placed in a greenhouse with an approximately 15 hr photoperiod which was maintained at about 23-29° C. during the day and 22-28° C. during the night. Nutrients and water were added on a regular basis and supplemental lighting was provided with overhead metal halide 1000 Watt lamps as necessary. The water was added by top-irrigation. After 3 weeks the condition of the test plants that germinated and grew as compared with that of the untreated plants that germinated and grew was determined visually and scored on a scale of 0 to 100 percent where 0 corresponds to no injury and 100 corresponds to complete kill or no germination.

[2] = tested on: morningglory (Ipomoea hederacea); assay: Preemergence herbicidal activity; settings: 17.5 g/Ha; scored after 3 weeks; 0 no injury, 100 complete kill or no germination
Experimental: as §1

[3] = tested on: wild poinsettia (Euphorbia heterophylla); assay: Preemergence herbicidal activity; settings: 17.5 g/Ha; scored after 3 weeks; 0 no injury, 100 complete kill or no germination
Experimental: as §1

[4] = tested on: pigweed (Amaranthus retroflexus); assay: Preemergence herbicidal activity; settings: 17.5 g/Ha; scored after 3 weeks; 0 no injury, 100 complete kill or no germination
Experimental: as §1

[5] = tested on: velvetleaf (Abutilion theophrasti); assay: Preemergence herbicidal activity; settings: 17.5 g/Ha; scored after 3 weeks; 0 no injury, 100 complete kill or no germination
Experimental: as §1

wild oats (Avena fatua) [6] = assay: Preemergence herbicidal activity; settings: 17.5 g/Ha; scored after 3 weeks; 0 no injury, 100 complete kill or no germination
Experimental: as §1

[7] = tested on: crabgrass (Digitaria sanguinalis); assay: Preemergence herbicidal activity; settings: 17.5 g/Ha; scored after 3 weeks; 0 no injury, 100 complete kill or no germination
Experimental: as §1

[8] = tested on: cocklebur (Xanthium strumarium); assay: Preemergence herbicidal activity; settings: 17.5 g/Ha; scored after 3 weeks; 0 no injury, 100 complete kill or no germination
Experimental: as §1

[9] = tested on: barnyardgrass (Echinochloa crus-galli); assay: Preemergence herbicidal activity; settings: 17.5 g/Ha; scored after 3 weeks; 0 no injury, 100 complete kill or no germination
Experimental: as §1

[10] = tested on: Rox orange sorghum (Sorghum bicolor); assay: Preemergence herbicidal activity; settings: 17.5 g/Ha; scored after 3 weeks; 0 no injury, 100 complete kill or no germination
Experimental: as §1

[11] = tested on: blackgrass (Alopecurus myosuroides); assay: Preemergence herbicidal activity; settings: 17.5 g/Ha; scored after 3 weeks; 0 no injury, 100 complete kill or no germination
Experimental: as §1

viola (Viola tricolor) = assay: Postemergence herbicidal activity; settings: scored after 2 weeks, 0 no injury, 100 complete kill
Experimental: (§2) Seeds of the desired test plant species were planted in Grace-Sierra MetroMix® 306 planting mixture, which typically has a pH of 6.0 to 6.8 and an organic matter content of about 30 percent, in plastic pots with a surface area of 64 square centimeters. When required to ensure good germination and healthy plants, a fungicide treatment and/or other chemical or physical treatment was applied. The plants were grown for 7-21 days in a greenhouse with an approximately 15 hr photoperiod which was maintained at about 23-29° C. during the day and 22-28° C. during the night. Nutrients and water were added on a regular basis and supplemental lighting was provided with overhead metal halide 1000 Watt lamps as necessary. The plants were employed for testing when they reached the first or second true leaf stage. A weighed amount of each test compound, determined by the highest rate to be tested, was placed in a 20 mL glass vial and was dissolved in 4 mL of a 97:3 v/v (volume/volume) mixture of acetone and dimethyl sulfoxide to obtain concentrated stock solutions. […] The concentrated stock solutions obtained were diluted with an aqueous mixture containing acetone, water, iso-propyl alcohol, dimethyl sulfoxide, Atplus 411F crop oil concentrate, and Triton X-155 surfactant (methylenebisdiamyl phenoxy polyethoxy ethanol) in a 48.5:39:10:1.5:1.0:0.02 v/v ratio to obtain spray solutions of known concentration. The solutions containing the highest concentration to be tested were prepared by diluting 2 mL aliquots of the stock solution with 13 mL of the mixture and lower concentrations were prepared by dilution of appropriate smaller portions of the stock solution. Approximately 1.5 mL aliquots of each solution of known concentration were sprayed evenly onto each of the test plant pots using a Devilbiss atomizer driven by compressed air pressure of 2 to 4 psi (140 to 280 kiloPascals) to obtain thorough coverage of each plant. Control plants were sprayed in the same manner with the aqueous mixture. In this test an application rate of 1 ppm results in the application of approximately 1 g/ha. The treated plants and control plants were placed in a greenhouse as described above and watered by sub-irrigation to prevent wash-off of the test compounds. After 2 weeks the condition of the test plants as compared with that of the untreated plants was determined visually and scored on a scale of 0 to 100 percent where 0 corresponds to no injury and 100 corresponds to complete kill.

[12] = tested on: giant foxtail (Setaria faberi); assay: Postemergence herbicidal activity; settings: scored after 2 weeks, 0 no injury, 100 complete kill
Experimental: as §2

[13] = tested on: pigweed (Amaranthus retroflexus); assay: Postemergence herbicidal activity; settings: scored after 2 weeks, 0 no injury, 100 complete kill
Experimental: as §2

[14] = tested on: velvetleaf (Abutilion theophrasti); assay: Postemergence herbicidal activity; settings: scored after 2 weeks, 0 no injury, 100 complete kill
Experimental: as §2

wild oats (Avena fatua) [15] = assay: Postemergence herbicidal activity; settings: scored after 2 weeks, 0 no injury, 100 complete kill
Experimental: as §2

[16] = tested on: cocklebur (Xanthium strumarium); assay: Postemergence herbicidal activity; settings: scored after 2 weeks, 0 no injury, 100 complete kill
Experimental: as §2

[17] = tested on: wild buckwheat (Polygonum convolvulus); assay: Postemergence herbicidal activity; settings: scored after 2 weeks, 0 no injury, 100 complete kill
Experimental: as §2

[18] = tested on: chickweed (Stellaria media); assay: Postemergence herbicidal activity; settings: scored after 2 weeks, 0 no injury, 100 complete kill
Experimental: as §2

[19] = tested on: Rox orange sorghum (Sorghum bicolor); assay: Postemergence herbicidal activity; settings: scored after 2 weeks, 0 no injury, 100 complete kill
Experimental: as §2

[20] = tested on: blackgrass (Alopecurus myosuroides); assay: Postemergence herbicidal activity; settings: scored after 2 weeks, 0 no injury, 100 complete kill
Experimental: as §2

[21] = tested on: lambsquarters (Chenopodium album); assay: Postemergence herbicidal activity; settings: scored after 2 weeks, 0 no injury, 100 complete kill
Experimental: as §2

Row | Compound | Preemergence herbicidal activity SETFA [1] [%] | Preemergence herbicidal activity IPOHE [2] [%] | Preemergence herbicidal activity EPHHL [3] [%] | Preemergence herbicidal activity AMARE [4] [%] | Preemergence herbicidal activity ABUTH [5] [%] | Preemergence herbicidal activity AVEFA (wild oats (Avena fatua) [6]) [%] | Preemergence herbicidal activity DIGSA [7] [%] | Preemergence herbicidal activity XANST [8] [%] | Preemergence herbicidal activity ECHCG [9] [%] | Preemergence herbicidal activity SORBI [10] [%] | Preemergence herbicidal activity ALOMY [11] [%] | also measured
1 | COc1cc(OC)n2nc(NS(=O)(=O)c3c(OC)cccc3OC)nc2n1 [Compound 2] | 100 | 85 | 85 | 100 | 75 | 75 | 80 | 80 | 60 | 95 | 100 | Postemergence herbicidal activity VIOTR (viola (Viola tricolor); 15.6 ppm): 90%; Postemergence herbicidal activity SETFA ([12]; 15.6 ppm): 98%; Postemergence herbicidal activity AMARE ([13]; 15.6 ppm): 95%; Postemergence herbicidal activity ABUTH ([14]; 15.6 ppm): 95%; Postemergence herbicidal activity AVEFA (wild oats (Avena fatua) [15]; 15.6 ppm): 98%; Postemergence herbicidal activity XANST ([16]; 15.6 ppm): 70%; Postemergence herbicidal activity POLCO ([17]; 15.6 ppm): 98%; Postemergence herbicidal activity STEME ([18]; 15.6 ppm): 98%; Postemergence herbicidal activity SORBI ([19]; 15.6 ppm): 100%; Postemergence herbicidal activity ALOMY ([20]; 15.6 ppm): 98%; Postemergence herbicidal activity CHEAL ([21]; 15.6 ppm): 90%
2 | COc1cc(OC)n2nc(NS(=O)(=O)c3c(OCCF)cccc3C(F)(F)F)nc2n1 [Compound 3, N-(5,7-dimethoxy[1,2,4]triazolo[1,5-a]pyrimidin-2-yl)-2-(2-fluoroethoxy)-6-(trifluoromethyl)benzenesulfonamide] | 100 | 98 | 90 | 100 | 100 | 95 | 100 | 100 | 100 | 100 | 100 | Postemergence herbicidal activity VIOTR (viola (Viola tricolor); 3.9 ppm): 90%; Postemergence herbicidal activity SETFA ([12]; 3.9 ppm): 98%; Postemergence herbicidal activity AMARE ([13]; 3.9 ppm): 98%; Postemergence herbicidal activity ABUTH ([14]; 3.9 ppm): 80%; Postemergence herbicidal activity AVEFA (wild oats (Avena fatua) [15]; 3.9 ppm): 70%; Postemergence herbicidal activity XANST ([16]; 3.9 ppm): 75%; Postemergence herbicidal activity POLCO ([17]; 3.9 ppm): 98%; Postemergence herbicidal activity STEME ([18]; 3.9 ppm): 95%; Postemergence herbicidal activity SORBI ([19]; 3.9 ppm): 70%; Postemergence herbicidal activity ALOMY ([20]; 3.9 ppm): 95%; Postemergence herbicidal activity CHEAL ([21]; 3.9 ppm): 95%
